In ChEMBL document CHEMBL1121962, “Synthesis of 4-amino-1-beta-D-ribofuranosyl-1H-pyrrolo[2,3-b]pyridine (1-deazatubercidin) as a potential antitumor agent” (J Med Chem, 1982):
The source made the active and inactive calls. The rule behind the calls is not given here.

Legend:
Mus musculus [1] = species on record: Mus musculus; experiment: Effect tested against murine sarcoma S-180 cells; Inactive; type: functional, cell-based
Mus musculus [2] = species on record: Mus musculus; experiment: Effect tested against murine leukemia L1210 cells; Inactive; type: functional, cell-based

Nc1ccnc2c1ccn2C1O[C@H](CO)[C@@H](O)[C@H]1O (some centres not stated)
Activity (Mus musculus [1]): inactive | Activity (Mus musculus [2]): inactive
